Measured values from PubChem BioAssay AID248 (DTP/NCI, 2004).
Toxic doses and inconclusive results are not listed. Rule as the data show it: active = T/C of 150% or more; inactive = T/C below 125%.

System: L1210 leukemia ip in BDF1 mice, survival T/C
Test: NCI In Vivo Anticancer Drug Screen. Data for tumor model L1210 Leukemia (intraperitoneal) in B6D2F1 (BDF1) mice
Conditions: endpoint: mean survival time, higher = longer survival
Procedure, shortened: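 Each compound was tested against a transplantable tumor grown in mice. The endpoint was survival, with treated animals benchmarked against vehicle controls as a simple ratio.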

[1] = dose: 100.0 mg/kg/injection, schedule: Q01DX009 (ip), vehicle: Klucel (hydroxypropylcellulose) (HPC)
[2] = dose: 100.0 mg/kg/injection, schedule: Q04DX003 (ip), vehicle: Klucel (hydroxypropylcellulose) (HPC)
[3] = dose: 200.0 mg/kg/injection, schedule: Q01DX009 (ip), vehicle: Klucel (hydroxypropylcellulose) (HPC)
[4] = dose: 200.0 mg/kg/injection, schedule: Q04DX003 (ip), vehicle: Klucel (hydroxypropylcellulose) (HPC)
[5] = dose: 400.0 mg/kg/injection, schedule: Q01DX009 (ip), vehicle: Klucel (hydroxypropylcellulose) (HPC)
[6] = dose: 400.0 mg/kg/injection, schedule: Q04DX003 (ip), vehicle: Klucel (hydroxypropylcellulose) (HPC)
[7] = dose: 100.0 mg/kg/injection, schedule: Q04DX003 (ip), vehicle: saline
[8] = dose: 100.0 mg/kg/injection, schedule: Q01DX009 (ip), vehicle: saline with Tween-80
[9] = dose: 200.0 mg/kg/injection, schedule: Q01DX009 (ip), vehicle: saline with Tween-80
[10] = dose: 25.0 mg/kg/injection, schedule: Q04DX003 (ip), vehicle: saline
[11] = dose: 25.0 mg/kg/injection, schedule: Q04DX002 (ip), vehicle: saline with Tween-80
[12] = dose: 50.0 mg/kg/injection, schedule: Q04DX002 (ip), vehicle: saline with Tween-80
[13] = dose: 100.0 mg/kg/injection, schedule: Q04DX002 (ip), vehicle: saline with Tween-80

Measured: T/C

O=C(CCl)OCCI
inactive: dose: 6.25 mg/kg/injection, schedule: Q01DX009 (ip), vehicle: acetone 97 % of control | dose: 12.5 mg/kg/injection, schedule: Q01DX009 (ip), vehicle: acetone 95 % of control | dose: 25.0 mg/kg/injection, schedule: Q01DX009 (ip), vehicle: acetone 90 % of control | dose: 25.0 mg/kg/injection, schedule: Q04DX003 (ip), vehicle: acetone 99 % of control | dose: 35.0 mg/kg/injection, schedule: Q01DX009 (ip), vehicle: acetone 98 % of control | dose: 55.0 mg/kg/injection, schedule: Q01DX009 (ip), vehicle: acetone 90 % of control | dose: 80.0 mg/kg/injection, schedule: Q01DX009 (ip), vehicle: acetone 97 % of control | dose: 100.0 mg/kg/injection, schedule: Q01DX001 (ip), vehicle: acetone 97 % of control

CCCCNC(=O)Nc1ccccc1C(N)=O
inactive: [1] 97 % of control | [2] 98 % of control | [3] 95 % of control | [4] 94 % of control | [5] 105 % of control | [6] 96 % of control

Cn1nnnc1N
inactive: [1] 96 % of control | dose: 100.0 mg/kg/injection, schedule: Q01DX009 (ip), vehicle: saline 98 % of control | [7] 103 % of control | [3] 100 % of control | dose: 200.0 mg/kg/injection, schedule: Q01DX009 (ip), vehicle: saline 96 % of control | dose: 200.0 mg/kg/injection, schedule: Q04DX003 (ip), vehicle: saline 105 % of control | [5] 95 % of control | dose: 400.0 mg/kg/injection, schedule: Q01DX009 (ip), vehicle: saline 89 % of control | dose: 400.0 mg/kg/injection, schedule: Q04DX003 (ip), vehicle: saline 100 % of control

CCC(C(N)=O)C1=CCCCC1 (configuration not stated)
inactive: [8] 95 % of control | [9] 93 % of control | dose: 400.0 mg/kg/injection, schedule: Q01DX009 (ip), vehicle: saline with Tween-80 98 % of control

OC(CCl)CBr (configuration not stated)
inactive: dose: 6.25 mg/kg/injection, schedule: Q01DX009 (ip), vehicle: saline 96 % of control | dose: 6.25 mg/kg/injection, schedule: Q04DX003 (ip), vehicle: saline 97 % of control | dose: 12.5 mg/kg/injection, schedule: Q01DX009 (ip), vehicle: saline 96 % of control | dose: 12.5 mg/kg/injection, schedule: Q04DX003 (ip), vehicle: saline 92 % of control | dose: 25.0 mg/kg/injection, schedule: Q01DX009 (ip), vehicle: saline 94 % of control | [10] 93 % of control

C=C(C)C1CCC2(CO)CCC3(C)C(CCC4C5(C)CCC(OC6CCCCO6)C(C)(C)C5CCC43C)C12 (configuration not stated)
inactive: [11] 96 % of control | [12] 93 % of control

COc1cc2c(c(Oc3ccc(C)cc3)c1)CN(C)CC2
inactive: [7] 98 % of control

CNC
inactive: [11] 95 % of control | [12] 88 % of control | [13] 88 % of control

COc1cccc(C23CCCCC2=NCC3)c1 (configuration not stated)
inactive: [10] 100 % of control | dose: 50.0 mg/kg/injection, schedule: Q04DX003 (ip), vehicle: saline 107 % of control | [7] 89 % of control

Oc1ccc(C2(c3ccc(O)cc3)CCCCC2)cc1
inactive: dose: 25.0 mg/kg/injection, schedule: Q01DX009 (ip), vehicle: alcohol 112 % of control | dose: 50.0 mg/kg/injection, schedule: Q01DX009 (ip), vehicle: alcohol 117 % of control | dose: 100.0 mg/kg/injection, schedule: Q01DX009 (ip), vehicle: alcohol 87 % of control | [8] 89 % of control | [9] 92 % of control

CC(=O)C1CCC2C3CCC4CC(O)CCC4(C)C3CCC12C#N (configuration not stated)
inactive: dose: 100.0 mg/kg/injection, schedule: Q01DX009 (sc), vehicle: steriod suspending solution 101 % of control | dose: 100.0 mg/kg/injection, schedule: Q04DX003 (sc), vehicle: steriod suspending solution 93 % of control | dose: 200.0 mg/kg/injection, schedule: Q01DX009 (sc), vehicle: steriod suspending solution 108 % of control | dose: 200.0 mg/kg/injection, schedule: Q04DX003 (sc), vehicle: steriod suspending solution 102 % of control | dose: 400.0 mg/kg/injection, schedule: Q01DX009 (sc), vehicle: steriod suspending solution 108 % of control | dose: 400.0 mg/kg/injection, schedule: Q04DX003 (sc), vehicle: steriod suspending solution 104 % of control

c1ccc(N(c2ccccc2)[Si](c2ccccc2)(c2ccccc2)c2ccccc2)cc1
inactive: dose: 25.6 mg/kg/injection, schedule: Q04DX002 (ip), vehicle: saline with Tween-80 93 % of control | dose: 64.0 mg/kg/injection, schedule: Q04DX002 (ip), vehicle: saline with Tween-80 93 % of control | dose: 160.0 mg/kg/injection, schedule: Q04DX002 (ip), vehicle: saline with Tween-80 97 % of control | dose: 400.0 mg/kg/injection, schedule: Q04DX002 (ip), vehicle: saline with Tween-80 104 % of control

C[CH2][Ge]1([CH2]C)[CH2]C(C)=C(C)[CH2]1
inactive: [13] 95 % of control | dose: 200.0 mg/kg/injection, schedule: Q04DX002 (ip), vehicle: saline with Tween-80 95 % of control

CC(=O)OC1(N=NC(C)(C)C)C(C)(C)C(=O)C1(C)C
inactive: [2] 91 % of control | [4] 86 % of control | [6] 91 % of control

COC(=O)C[As+](c1ccccc1)(c1ccccc1)c1ccccc1
inactive: dose: 38.0 mg/kg/injection, schedule: Q04DX003 (ip), vehicle: saline 91 % of control | dose: 75.0 mg/kg/injection, schedule: Q04DX003 (ip), vehicle: saline 100 % of control | dose: 150.0 mg/kg/injection, schedule: Q04DX003 (ip), vehicle: saline 96 % of control

CCS(=O)(=O)Nc1ccc(NS(=O)(=O)CC)cc1
inactive: [1] 96 % of control | [3] 100 % of control | [5] 101 % of control
